Experimental data from ChEMBL document CHEMBL4308857, “Leishmania treatment and prevention: Natural and synthesized drugs” (Eur J Med Chem, 2018).
pIC50: −log10 of the molar value. Converted amounts (≈) assume the structure as drawn.

Assays:
Leishmania amazonensis [1] = assay: Antileishmanial activity against Leishmania amazonensis MHOM/BR/76/LTB-012 axenic amastigotes after 72 hrs by MTT assay; format: functional, organism-based; details: MHOM/BR/76/LTB-012, 72 h
Leishmania amazonensis [2] = assay: Antileishmanial activity against Leishmania amazonensis MCAN/ES/92/BCN83 axenic amastigotes infected in BALB/c mouse assessed as reduction in parasitic burden at 10 mg/kg, ip administered as daily dose for 3 continuous days and measured at day 5 post last dose by limit dilution assay relative to control; format: functional; design: scale not given: the % may be the effect or the level left
Leishmania donovani [3] = assay: Antileishmanial activity against Leishmania donovani […]/IN/80/DD8 promastigotes after 72 hrs by MTT assay; format: functional, organism-based; details: […]/IN/80/DD8, 72 h
Leishmania donovani [4] = assay: Antileishmanial activity against Leishmania donovani MHOM/ET/ 67/L82 amastigotes infected in BALB/c mouse assessed as reduction in parasitic load in liver at 100 mg/kg, sc qd administered for 5 days measured at 3 days post last dose relative to control; format: functional; design: scale not given: the % may be the effect or the level left
[5] = Cytotoxicity against BALB/c mouse peritoneal cells assessed as reduction in cell viability after 24 hrs by MTT assay; format: cell-based
Leishmania amazonensis [6] = assay: Antileishmanial activity against Leishmania amazonensis […]/BR/75/Josefa promastigotes; format: functional, organism-based
Leishmania amazonensis [7] = assay: Antileishmanial activity against Leishmania amazonensis […]/BR/75/Josefa axenic amastigotes infected in mouse J774A1 cells; format: functional, organism-based; details: J774.A1
Leishmania donovani [8] = assay: Antileishmanial activity against wild type Leishmania donovani LV9 promastigotes by MTT assay; format: functional, organism-based
[9] = tested on: Mycobacterium tuberculosis; assay: Antitubercular activity against Mycobacterium tuberculosis H37Rv ATCC 27294 after 7 to 10 days by Resazurin microtiter assay; format: functional, organism-based
[10] = Cytotoxicity against human U937 cells assessed as reduction in cell viability after 72 hrs by MTT assay; format: cell-based, U-937; details: read-out: LD50
Leishmania panamensis = assay: Antileishmanial activity against GFP-fused Leishmania panamensis MHOM/CO/87/UA140pIR amastigotes infected in human U937 cells after 72 hrs by flow cytometric analysis; format: functional, organism-based; details: U-937, 72 h
Leishmania infantum [11] = assay: Antileishmanial activity against zymodemes of Leishmania infantum MCAN/ES/90/DP204 promastigotes by Neubauer chamber analysis; format: functional, organism-based
Leishmania amazonensis [12] = assay: Antileishmanial activity against Leishmania amazonensis promastigotes; format: functional, organism-based
Leishmania amazonensis [13] = assay: Antileishmanial activity against Leishmania amazonensis axenic amastigotes; format: functional, organism-based
Leishmania amazonensis [14] = assay: Antileishmanial activity against Leishmania amazonensis MHOM/BR/77/LTB0016 promastigotes after 24 hrs; format: functional, organism-based; details: MHOM/BR/77/LTB0016, 24 h
Leishmania infantum [15] = assay: Antileishmanial activity against Leishmania infantum MCAN/BR/97/P142 promastigotes after 24 hrs; format: functional, organism-based; details: MCAN/BR/97/P142, 24 h
Leishmania amazonensis [16] = assay: Antileishmanial activity against Leishmania amazonensis MHOM/BR/75/Josefa intracellular amastigotes after 72 hrs by Neubauer hemocytometric analysis; format: functional, organism-based
Leishmania amazonensis [17] = assay: Antileishmanial activity against Leishmania amazonensis MHOM/BR/75/Josefa promastigotes after 72 hrs by Neubauer hemocytometric analysis; format: functional, organism-based
Leishmania amazonensis [18] = assay: Antileishmanial activity against Leishmania amazonensis MHOM/BR/75/Josefa axenic amastigotes after 72 hrs by Neubauer hemocytometric analysis; format: functional, organism-based
Leishmania aethiopica = assay: Antileishmanial activity against Leishmania aethiopica amastigotes; format: functional, organism-based
Leishmania mexicana [19] = assay: Antileishmanial activity against Leishmania mexicana LV4 promastigotes; format: functional, organism-based
Leishmania mexicana [20] = assay: Antileishmanial activity against Leishmania mexicana LV4 amastigotes infected in BALB/c bone marrow-derived macrophages assessed as reduction in cell viability after 2 hrs by trypan blue staining based bright-field microscopic analysis; format: functional, organism-based; details: LV4, 2 h
Leishmania amazonensis [21] = assay: Antileishmanial activity against Leishmania amazonensis promastigotes assessed as reduction in parasitic growth after 5 to 7 days by Neubauer chamber analysis; format: functional, organism-based
Leishmania major [22] = assay: Antileishmanial activity against Leishmania major amastigotes; format: functional, organism-based
[23] = tested on: Leishmania mexicana venezuelensis; assay: Antileishmanial activity against Leishmania venezuelensis MHOM/VE/74/PM-H3 amastigotes infected in BALB/c mouse assessed as reduction in parasitic load in footpad at 14 to 56 mg/kg, sc bid treated for 15 days at interval of 4 days and measured at 1 week post last dose by Giemsa staining-based inverted microscopic analysis relative to control; format: functional; design: scale not given: the % may be the effect or the level left
Leishmania donovani [24] = assay: Antileishmanial activity against Leishmania donovani promastigotes after 48 hrs by MTT assay; format: functional, organism-based
Leishmania donovani [25] = assay: Antileishmanial activity against Leishmania donovani amastigotes infected in mouse J774G8 cells after 48 to 72 hrs by Giemsa staining-based bright-field microscopic analysis; format: functional, organism-based
Leishmania major [26] = assay: Antileishmanial activity against Leishmania major MHOM/IL/67/LRC-L137 promastigotes after 2 hrs by 3H-thymidine incorporation assay; format: functional, organism-based
Leishmania donovani [27] = assay: Antileishmanial activity against Leishmania donovani MHOM/SD/00/1SD2D axenic amastigotes infected in human peripheral blood mononuclear cells after 3 days by 3H-thymidine incorporation assay; format: functional, organism-based
Leishmania donovani [28] = assay: Antileishmanial activity against Leishmania donovani promastigotes infected in hamster assessed as reduction in parasitic load in liver at 20 mg/kg, ip treated for 6 consecutive days measured at day 8 post last dose by 3H-thymidine incorporation assay relative to control; format: functional; design: scale not given: the % may be the effect or the level left
Leishmania donovani [29] = assay: Antileishmanial activity against Leishmania donovani promastigotes infected in hamster assessed as reduction in parasitic load in spleen at 20 mg/kg, ip treated for 6 consecutive days measured at day 8 post last dose by 3H-thymidine incorporation assay relative to control; format: functional; design: scale not given: the % may be the effect or the level left
Leishmania donovani [30] = assay: Antileishmanial activity against Leishmania donovani promastigotes infected in golden hamster assessed as reduction in parasitic load in spleen at 3.5 mg/kg, po administered 2 times a week for 4 weeks starting at 4 days post-infection measured 1 week post last dose by Giemsa staining-based assay relative to control; format: functional; design: scale not given: the % may be the effect or the level left
Leishmania donovani [31] = assay: Antileishmanial activity against Leishmania donovani promastigotes infected in golden hamster assessed as reduction in parasitic load in spleen at 14 mg/kg, po administered 2 times a week for 4 weeks starting at 4 days post-infection measured 1 week post last dose by Giemsa staining-based assay relative to control; format: functional; design: scale not given: the % may be the effect or the level left
Leishmania donovani [32] = assay: Antileishmanial activity against Leishmania donovani intracellular amastigotes infected in mouse J774A.1 cells by flow cytometry; format: functional, organism-based; details: J774.A1

## O=C1c2ccccc2C2=NCCc3cccc1c32
Leishmania amazonensis [1]
  pIC50: > 7.30
Leishmania amazonensis [2]
  Activity: <=90%

## O=c1oc2ccccc2c(O)c1C(c1ccccc1)c1c(O)c2ccccc2oc1=O
Leishmania donovani [3]
  IC50: 155 µg/mL (≈ 376 µM)

## CC(=O)O[C@@]12CO[C@@H]1C[C@H](O)[C@@]1(C)C(=O)[C@H](O)C3=C(C)[C@@H](O)C[C@@](O)([C@@H](OC(=O)c4ccccc4)[C@H]21)C3(C)C
Leishmania donovani [4]
  Activity: 42%

## Cc1nn(-c2ccc(S(=O)(=O)Nc3ccccc3)cc2)c(Cl)c1Br
[5]
  CC50 at 24 h: 144 µM

## CCCCNC(=O)c1cc2c([nH]c3ccccc32)c(-c2ccc(OC)cc2)n1
Leishmania amazonensis [6]
  pIC50: 5.35
Leishmania amazonensis [7]
  pIC50: 4.90

## COc1ccc(N[C@]2(C(F)(F)F)O[C@@H]3O[C@@]4(C)CC[C@H]5[C@H](C)CC[C@@H]([C@H]2C)[C@@]35OO4)cc1
Leishmania donovani [8]
  pIC50: 5.82

## COc1ccc(C(c2c(O)c3ccccc3oc2=O)c2c(O)c3ccccc3oc2=O)c(OC)c1
Leishmania donovani [3]
  IC50: 158 µg/mL (≈ 333 µM)

## COC(=O)CC[C@@H](C)[C@H]1CC[C@H]2[C@@H]3[C@H](O)C[C@@H]4C[C@@H](n5cc(CNCCNc6ccnc7cc(Cl)ccc67)nn5)CC[C@]4(C)[C@H]3C[C@H](O)[C@]12C
[9]
  pIC50: 4.97

## O=C1C2=C(CCCC2)C2=NCCc3cccc1c32
Leishmania amazonensis [1]
  pIC50: 7.60

## O=c1ccoc2cc(OCCCCOc3cc(Cl)ccc3Oc3ccc(Cl)cc3Cl)ccc12
[10]
  CC50 at 72 h: 15.8 µg/mL (≈ 31.2 µM)
Leishmania panamensis
  EC50: 7.5 µg/mL (≈ 14.8 µM)

## CC(C)=CCC[C@@](C)(O)C1CC=C(C)CC1 (some centres not stated)
Leishmania infantum [11]
  IC50: 11 µg/mL (≈ 49.4 µM)

## Cc1cc(=O)oc2cc(OCCCCOc3cc(Cl)ccc3Oc3ccc(Cl)cc3Cl)ccc12
[10]
  CC50 at 72 h: > 200 µg/mL
Leishmania panamensis
  EC50: 27.5 µg/mL (≈ 52.9 µM)

## Cc1cccc(-c2ccn(S(=O)(=O)c3ccccc3)n2)c1NS(=O)(=O)c1ccccc1
Leishmania amazonensis [12]
  pIC50: 5.17
Leishmania amazonensis [13]
  pIC50: 4.25

## Cc1nn(-c2ccc(S(=O)(=O)Nc3ccc(Cl)cc3)cc2)c(Cl)c1Br
Leishmania amazonensis [14]
  pIC50: 7.14
Leishmania infantum [15]
  pIC50: 7.19
[5]
  CC50 at 24 h: 116 µM

## C/C=C/c1ccc2oc(-c3ccc(O)c(OC)c3)c(C)c2c1
Leishmania amazonensis [16]
  IC50: 5 µg/mL (≈ 17 µM)
Leishmania amazonensis [17]
  IC50: 9 µg/mL (≈ 30.6 µM)
Leishmania amazonensis [18]
  IC50: 13 µg/mL (≈ 44.2 µM)

## COc1cc(OC)c(C(c2c(O)c3ccccc3oc2=O)c2c(O)c3ccccc3oc2=O)c(OC)c1
Leishmania donovani [3]
  IC50: 150 µg/mL (≈ 299 µM)

## CCC(=O)N1N=C(c2ccccc2)CC1c1cn(-c2ccccc2)nc1-c1ccc(C)cc1 (configuration not stated)
Leishmania aethiopica
  IC50: 0.112 µg/mL (≈ 0.258 µM)

## C=CCCCCC/C=C\CC#CC#C[C@@H](O)C=C
Leishmania mexicana [19]
  pIC50: 6.26
Leishmania mexicana [20]
  pIC50: 6.32

## C[C@@]12C[C@H]3OC(=O)[C@@H]1CO[C@]14O[C@@]5([C@H]2C1=O)[C@@]3(C)OC(=O)[C@@]5(O)CC[C@H]1[C@H]4C[C@H]2O[C@]23CC=CC(=O)[C@]13C
Leishmania amazonensis [21]
  pIC50: 5.85

## CC(C)c1nc2nc(N)nc(N)c2nc1C(C)C
Leishmania major [22]
  pIC50: 6.30

## C/C=C/c1ccc2ccccc2n1 [CHIMANINE B]
[23]
  Activity: 95%

## C/C=C1\C(=O)O[C@]23C=C[C@@H]4C(C(=O)OC)=CO[C@H](O[C@@H]12)[C@@H]43 [ISOPLUMERICIN]
Leishmania donovani [24]
  pIC50: 5.50
Leishmania donovani [25]
  pIC50: 5.85

## C=CC(C)(C)c1cc(/C=C/C(=O)c2ccc(O)cc2)c(OC)cc1O [LICOAGROCHACONE A]
Leishmania major [26]
  IC50: 7.2 µg/mL (≈ 21.3 µM)
Leishmania donovani [27]
  IC50: 0.9 µg/mL (≈ 2.66 µM)
Leishmania donovani [28]
  Activity: >90%
Leishmania donovani [29]
  Activity: >90%

## O=c1cc(-c2ccc(O)c(O)c2)oc2cc(O)cc(O)c12 [LUTEOLIN]
Leishmania donovani [30]
  Activity: <=90%

## C/C=C1/C(=O)O[C@]23C=C[C@@H]4C(C(=O)OC)=CO[C@H](O[C@@H]12)[C@@H]43 [PLUMERICIN]
Leishmania donovani [24]
  pIC50: 5.14
Leishmania donovani [25]
  pIC50: 5.39

## O=c1c(O)c(-c2ccc(O)c(O)c2)oc2cc(O)cc(O)c12 [QUERCETIN]
Leishmania donovani [31]
  Activity: <=90%

## c1ccc2c(c1)Sc1ccccc1S2 [THIANTHRENE]
Leishmania donovani [32]
  pIC50: 4.64
